Measured values published in ChEMBL document CHEMBL5291721, “A preclinical secondary pharmacology resource illuminates target-adverse drug reaction associations of marketed drugs” (Nat Commun, 2023).

How the values were obtained:
[1] = molecular target: T1, Sodium-dependent noradrenaline transporter (Homo sapiens, UniProt P23975)
[2] = molecular target: T2, Alpha-1A adrenergic receptor (Homo sapiens, UniProt P35348)
T2 sequence (P35348 whole entry): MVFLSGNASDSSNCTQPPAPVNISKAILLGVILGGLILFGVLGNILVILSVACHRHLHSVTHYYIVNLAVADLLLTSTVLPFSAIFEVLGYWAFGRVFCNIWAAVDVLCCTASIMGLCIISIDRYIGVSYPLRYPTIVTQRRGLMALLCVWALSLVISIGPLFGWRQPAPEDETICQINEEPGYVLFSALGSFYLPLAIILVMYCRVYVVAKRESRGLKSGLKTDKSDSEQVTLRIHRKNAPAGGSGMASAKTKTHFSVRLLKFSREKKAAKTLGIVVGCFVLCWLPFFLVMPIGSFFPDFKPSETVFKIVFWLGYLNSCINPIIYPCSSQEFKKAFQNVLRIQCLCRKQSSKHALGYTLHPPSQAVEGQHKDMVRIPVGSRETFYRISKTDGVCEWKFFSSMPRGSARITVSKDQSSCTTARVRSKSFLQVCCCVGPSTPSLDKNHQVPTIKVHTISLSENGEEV

[3] = molecular target: T3, Alpha-2A adrenergic receptor (Homo sapiens, UniProt P08913); format: functional, cell-based
T3 sequence (P08913 whole entry): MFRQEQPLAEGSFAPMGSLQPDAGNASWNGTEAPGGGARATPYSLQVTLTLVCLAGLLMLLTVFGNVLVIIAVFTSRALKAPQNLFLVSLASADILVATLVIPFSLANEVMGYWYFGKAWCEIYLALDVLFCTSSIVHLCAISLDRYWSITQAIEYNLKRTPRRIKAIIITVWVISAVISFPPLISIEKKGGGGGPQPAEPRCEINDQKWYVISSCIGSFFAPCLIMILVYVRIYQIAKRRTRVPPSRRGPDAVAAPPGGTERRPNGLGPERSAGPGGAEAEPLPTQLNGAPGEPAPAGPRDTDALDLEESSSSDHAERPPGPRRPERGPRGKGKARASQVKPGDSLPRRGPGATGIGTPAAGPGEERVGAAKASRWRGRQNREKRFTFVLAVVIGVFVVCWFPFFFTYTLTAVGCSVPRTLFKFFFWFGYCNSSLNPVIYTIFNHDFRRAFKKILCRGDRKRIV

[4] = molecular target: T4, Androgen receptor (Rattus norvegicus, UniProt P15207); format: functional
T4 sequence (P15207 whole entry): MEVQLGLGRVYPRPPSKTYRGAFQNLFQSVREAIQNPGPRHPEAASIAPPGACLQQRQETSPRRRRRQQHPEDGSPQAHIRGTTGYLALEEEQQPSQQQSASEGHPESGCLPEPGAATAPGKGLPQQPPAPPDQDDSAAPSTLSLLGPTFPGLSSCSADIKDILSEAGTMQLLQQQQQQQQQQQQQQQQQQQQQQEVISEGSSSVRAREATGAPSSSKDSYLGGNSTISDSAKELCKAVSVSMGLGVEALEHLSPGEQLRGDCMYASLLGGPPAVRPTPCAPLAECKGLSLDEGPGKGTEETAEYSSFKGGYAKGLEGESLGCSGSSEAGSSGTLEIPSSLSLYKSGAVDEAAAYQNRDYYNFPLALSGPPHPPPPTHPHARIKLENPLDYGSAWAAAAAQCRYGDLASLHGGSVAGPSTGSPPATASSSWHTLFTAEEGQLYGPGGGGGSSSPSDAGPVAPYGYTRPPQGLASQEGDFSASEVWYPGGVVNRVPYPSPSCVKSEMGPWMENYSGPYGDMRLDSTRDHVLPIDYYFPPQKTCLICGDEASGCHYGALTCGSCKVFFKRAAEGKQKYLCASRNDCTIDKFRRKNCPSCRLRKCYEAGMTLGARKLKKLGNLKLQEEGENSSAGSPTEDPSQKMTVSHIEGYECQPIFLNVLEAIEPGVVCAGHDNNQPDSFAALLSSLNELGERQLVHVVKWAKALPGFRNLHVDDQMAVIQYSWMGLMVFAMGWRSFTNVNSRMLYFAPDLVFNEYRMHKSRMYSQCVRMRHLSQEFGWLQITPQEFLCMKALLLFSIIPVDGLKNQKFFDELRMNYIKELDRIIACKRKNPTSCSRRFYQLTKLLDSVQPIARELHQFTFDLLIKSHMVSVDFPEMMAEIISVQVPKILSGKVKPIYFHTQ

[5] = molecular target: Mu-type opioid receptor (Homo sapiens, UniProt P35372); assay: biochemical; format: functional
[6] = molecular target: Beta-1 adrenergic receptor (Homo sapiens, UniProt P08588); format: functional
[7] = molecular target: 5-hydroxytryptamine receptor 2A (Homo sapiens, UniProt P28223); format: functional, cell-based
[8] = molecular target: T5, Prostaglandin G/H synthase 1 (Rattus norvegicus, UniProt Q63921); format: functional
T5 sequence (Q63921 whole entry): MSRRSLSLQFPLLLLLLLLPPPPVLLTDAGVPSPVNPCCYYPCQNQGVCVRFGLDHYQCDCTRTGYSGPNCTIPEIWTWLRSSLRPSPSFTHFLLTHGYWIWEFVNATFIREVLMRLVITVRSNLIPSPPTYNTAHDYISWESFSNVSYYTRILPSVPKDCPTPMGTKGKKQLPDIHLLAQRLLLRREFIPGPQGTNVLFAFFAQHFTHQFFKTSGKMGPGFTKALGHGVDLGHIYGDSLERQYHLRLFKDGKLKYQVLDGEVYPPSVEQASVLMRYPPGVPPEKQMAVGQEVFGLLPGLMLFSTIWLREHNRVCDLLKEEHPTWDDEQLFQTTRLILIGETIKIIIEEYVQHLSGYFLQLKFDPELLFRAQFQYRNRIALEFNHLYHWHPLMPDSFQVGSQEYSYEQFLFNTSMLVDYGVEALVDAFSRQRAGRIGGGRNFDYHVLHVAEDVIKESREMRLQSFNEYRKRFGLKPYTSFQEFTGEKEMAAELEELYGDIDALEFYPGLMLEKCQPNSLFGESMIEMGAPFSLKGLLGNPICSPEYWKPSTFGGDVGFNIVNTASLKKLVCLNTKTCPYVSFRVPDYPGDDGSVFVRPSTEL

[9] = molecular target: Cannabinoid receptor 1 (Homo sapiens, UniProt P21554)
[10] = molecular target: Voltage-dependent L-type calcium channel subunit alpha-1C (Rattus norvegicus, UniProt P22002); format: functional
[11] = molecular target: T1, Sodium-dependent noradrenaline transporter; remark: listed apart in the source
[12] = molecular target: Gamma-aminobutyric acid receptor subunit alpha-1/alpha-2/beta-2/gamma-2 (Homo sapiens, UniProt P14867+P18507+P47869+P47870); format: protein-complex assay
Also: assay procedure not described here.

T1 sequence (P23975 whole entry): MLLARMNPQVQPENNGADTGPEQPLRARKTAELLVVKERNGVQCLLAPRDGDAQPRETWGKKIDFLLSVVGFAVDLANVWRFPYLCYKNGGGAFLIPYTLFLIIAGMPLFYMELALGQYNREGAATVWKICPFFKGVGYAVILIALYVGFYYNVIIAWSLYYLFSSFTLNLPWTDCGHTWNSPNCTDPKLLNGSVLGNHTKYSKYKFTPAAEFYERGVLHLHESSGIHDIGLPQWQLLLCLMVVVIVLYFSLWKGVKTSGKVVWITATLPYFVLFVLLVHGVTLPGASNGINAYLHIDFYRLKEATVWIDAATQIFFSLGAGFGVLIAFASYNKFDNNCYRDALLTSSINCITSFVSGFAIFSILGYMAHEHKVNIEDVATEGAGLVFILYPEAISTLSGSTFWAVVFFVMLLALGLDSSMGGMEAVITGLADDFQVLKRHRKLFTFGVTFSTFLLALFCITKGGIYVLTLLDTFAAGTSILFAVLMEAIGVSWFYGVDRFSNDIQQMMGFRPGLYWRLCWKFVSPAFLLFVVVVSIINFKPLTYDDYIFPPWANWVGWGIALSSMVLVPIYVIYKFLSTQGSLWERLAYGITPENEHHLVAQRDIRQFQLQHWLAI
Cannabinoid receptor 1, sequence (P21554 whole entry): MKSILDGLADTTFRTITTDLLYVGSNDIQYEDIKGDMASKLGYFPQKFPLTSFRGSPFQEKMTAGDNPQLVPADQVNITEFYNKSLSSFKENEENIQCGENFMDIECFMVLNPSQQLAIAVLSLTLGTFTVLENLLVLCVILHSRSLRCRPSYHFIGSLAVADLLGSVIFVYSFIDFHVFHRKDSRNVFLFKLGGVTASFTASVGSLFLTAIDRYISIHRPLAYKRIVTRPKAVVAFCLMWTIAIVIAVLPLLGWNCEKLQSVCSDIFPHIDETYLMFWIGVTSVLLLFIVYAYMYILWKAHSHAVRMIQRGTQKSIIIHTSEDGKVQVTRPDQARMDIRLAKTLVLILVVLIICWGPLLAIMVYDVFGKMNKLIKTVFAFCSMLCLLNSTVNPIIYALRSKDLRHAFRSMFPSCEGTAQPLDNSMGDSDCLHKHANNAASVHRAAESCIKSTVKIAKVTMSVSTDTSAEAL
5-hydroxytryptamine receptor 2A, sequence (P28223 whole entry): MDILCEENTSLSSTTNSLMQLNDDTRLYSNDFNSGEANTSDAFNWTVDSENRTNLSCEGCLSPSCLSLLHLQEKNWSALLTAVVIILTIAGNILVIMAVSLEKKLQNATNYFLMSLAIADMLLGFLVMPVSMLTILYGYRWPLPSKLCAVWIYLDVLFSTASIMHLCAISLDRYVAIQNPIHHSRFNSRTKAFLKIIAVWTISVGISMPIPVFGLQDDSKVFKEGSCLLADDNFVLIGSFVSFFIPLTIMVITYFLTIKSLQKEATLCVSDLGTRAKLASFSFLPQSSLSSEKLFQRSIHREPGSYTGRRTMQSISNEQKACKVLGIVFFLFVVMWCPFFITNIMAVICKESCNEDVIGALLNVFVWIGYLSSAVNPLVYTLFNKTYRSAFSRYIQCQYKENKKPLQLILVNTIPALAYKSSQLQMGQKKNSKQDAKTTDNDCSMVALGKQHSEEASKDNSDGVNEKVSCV
Beta-1 adrenergic receptor, sequence (P08588 whole entry): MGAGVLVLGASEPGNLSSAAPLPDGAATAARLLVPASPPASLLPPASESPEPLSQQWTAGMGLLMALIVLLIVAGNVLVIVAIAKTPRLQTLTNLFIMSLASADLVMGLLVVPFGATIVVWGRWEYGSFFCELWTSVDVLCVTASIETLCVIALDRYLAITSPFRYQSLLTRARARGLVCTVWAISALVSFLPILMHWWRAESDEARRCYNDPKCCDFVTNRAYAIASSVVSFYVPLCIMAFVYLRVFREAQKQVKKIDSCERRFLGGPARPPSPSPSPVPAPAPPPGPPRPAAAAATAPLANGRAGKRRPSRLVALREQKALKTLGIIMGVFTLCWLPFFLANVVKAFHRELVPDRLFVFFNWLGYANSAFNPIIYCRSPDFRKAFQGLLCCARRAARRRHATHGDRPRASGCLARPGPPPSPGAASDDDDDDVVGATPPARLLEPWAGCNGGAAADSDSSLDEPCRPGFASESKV
Gamma-aminobutyric acid receptor subunit alpha-1/alpha-2/beta-2/gamma-2, sequence (P14867 whole entry): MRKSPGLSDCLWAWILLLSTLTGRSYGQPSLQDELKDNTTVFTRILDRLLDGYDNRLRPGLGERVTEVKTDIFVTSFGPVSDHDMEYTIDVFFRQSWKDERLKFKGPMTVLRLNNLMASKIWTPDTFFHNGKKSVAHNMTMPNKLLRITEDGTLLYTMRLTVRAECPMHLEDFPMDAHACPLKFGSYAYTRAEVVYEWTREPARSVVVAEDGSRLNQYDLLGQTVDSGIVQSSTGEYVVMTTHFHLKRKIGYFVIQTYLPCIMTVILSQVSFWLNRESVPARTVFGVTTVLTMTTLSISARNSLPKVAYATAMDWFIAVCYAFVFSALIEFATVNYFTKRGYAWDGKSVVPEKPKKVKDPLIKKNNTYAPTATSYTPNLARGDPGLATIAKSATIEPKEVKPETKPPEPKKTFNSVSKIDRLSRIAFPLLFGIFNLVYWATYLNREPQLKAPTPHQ
Gamma-aminobutyric acid receptor subunit alpha-1/alpha-2/beta-2/gamma-2, sequence (P47870 whole entry): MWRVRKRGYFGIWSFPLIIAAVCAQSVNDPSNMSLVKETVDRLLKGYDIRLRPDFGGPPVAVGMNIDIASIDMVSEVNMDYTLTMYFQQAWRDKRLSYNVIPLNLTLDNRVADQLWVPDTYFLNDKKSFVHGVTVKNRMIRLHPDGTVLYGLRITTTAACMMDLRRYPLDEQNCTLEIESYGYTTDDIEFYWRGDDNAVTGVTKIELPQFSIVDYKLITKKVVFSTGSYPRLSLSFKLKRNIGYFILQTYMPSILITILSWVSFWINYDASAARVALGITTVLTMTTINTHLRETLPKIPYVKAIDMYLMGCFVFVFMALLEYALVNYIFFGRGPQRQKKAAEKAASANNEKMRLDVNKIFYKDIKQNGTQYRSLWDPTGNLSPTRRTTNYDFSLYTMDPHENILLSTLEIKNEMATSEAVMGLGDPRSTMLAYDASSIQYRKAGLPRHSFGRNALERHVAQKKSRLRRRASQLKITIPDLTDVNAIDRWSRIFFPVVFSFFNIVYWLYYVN
Gamma-aminobutyric acid receptor subunit alpha-1/alpha-2/beta-2/gamma-2, sequence (P18507 whole entry): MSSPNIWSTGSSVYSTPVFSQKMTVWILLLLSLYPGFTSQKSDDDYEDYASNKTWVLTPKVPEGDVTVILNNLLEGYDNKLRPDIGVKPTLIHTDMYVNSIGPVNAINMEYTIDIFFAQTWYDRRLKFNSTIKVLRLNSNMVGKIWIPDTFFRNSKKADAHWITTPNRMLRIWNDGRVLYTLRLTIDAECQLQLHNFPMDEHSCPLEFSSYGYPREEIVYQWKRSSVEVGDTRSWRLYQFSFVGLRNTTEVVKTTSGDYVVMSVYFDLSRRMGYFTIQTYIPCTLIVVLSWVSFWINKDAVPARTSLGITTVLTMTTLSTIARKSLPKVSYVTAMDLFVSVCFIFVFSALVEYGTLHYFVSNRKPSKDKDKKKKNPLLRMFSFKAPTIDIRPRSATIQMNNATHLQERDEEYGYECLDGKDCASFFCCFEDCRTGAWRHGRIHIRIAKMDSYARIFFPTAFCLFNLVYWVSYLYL
Gamma-aminobutyric acid receptor subunit alpha-1/alpha-2/beta-2/gamma-2, sequence (P47869 whole entry): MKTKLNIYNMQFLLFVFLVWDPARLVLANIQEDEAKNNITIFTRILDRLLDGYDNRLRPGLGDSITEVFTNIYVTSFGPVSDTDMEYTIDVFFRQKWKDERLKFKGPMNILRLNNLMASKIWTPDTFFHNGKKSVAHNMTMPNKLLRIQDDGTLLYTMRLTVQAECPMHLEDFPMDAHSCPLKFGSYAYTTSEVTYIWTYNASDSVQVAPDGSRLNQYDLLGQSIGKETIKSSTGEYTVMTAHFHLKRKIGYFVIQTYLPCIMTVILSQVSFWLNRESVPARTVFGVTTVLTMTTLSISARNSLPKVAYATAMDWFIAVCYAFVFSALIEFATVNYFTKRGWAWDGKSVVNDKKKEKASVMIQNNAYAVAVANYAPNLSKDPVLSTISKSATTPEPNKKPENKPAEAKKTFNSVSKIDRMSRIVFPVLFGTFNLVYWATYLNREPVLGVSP
Mu-type opioid receptor, sequence (P35372 whole entry): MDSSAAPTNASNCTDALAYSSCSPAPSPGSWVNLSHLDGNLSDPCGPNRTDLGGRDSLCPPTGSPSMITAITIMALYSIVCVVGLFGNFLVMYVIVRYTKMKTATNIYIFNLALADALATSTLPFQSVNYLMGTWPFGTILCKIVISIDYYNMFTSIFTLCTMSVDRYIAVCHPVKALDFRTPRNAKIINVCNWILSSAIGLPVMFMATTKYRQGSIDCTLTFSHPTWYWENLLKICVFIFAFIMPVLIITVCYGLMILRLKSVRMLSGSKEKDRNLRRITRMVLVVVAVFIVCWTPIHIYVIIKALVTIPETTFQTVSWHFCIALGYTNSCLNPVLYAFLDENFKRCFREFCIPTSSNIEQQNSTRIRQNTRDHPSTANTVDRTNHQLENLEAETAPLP

| Compound | AC50 [1] | AC50 [2] | AC50 [3] | AC50 [4] | AC50 [5] | AC50 [6] | AC50 [7] | AC50 [8] | AC50 [9] | AC50 [10] | AC50 [11] | AC50 [12] |
| --- | --- | --- | --- | --- | --- | --- | --- | --- | --- | --- | --- | --- |
| HYDROXOCOBALAMIN | > 30 µM | > 30 µM | > 30 µM | > 10 µM | > 30 µM | > 30 µM | > 30 µM | 0.003 µM | > 30 µM | > 30 µM |  |  |
| CN(C)c1ccc(C(=C2C=CC(=[N+](C)C)C=C2)c2ccc(N(C)C)cc2)cc1 [GENTIAN VIOLET] |  |  |  |  |  |  |  |  |  |  | 4.7 µM | > 3 µM |
